Experimental data: PMC9782626, “Copper(II) Complexes of 5–Fluoro–Salicylaldehyde: Synthesis, Characterization, Antioxidant Properties, Interaction with DNA and Serum Albumins” (Molecules, 2022)

Tested on: EB–DNA conjugate (CT DNA)
Test: EB-displacement studies (fluorescence of EB-DNA conjugate)
Assay type: binding, calf
Settings: for Stern–Volmer constant Ksv (EB–DNA) / ΔΙ/Ιο, percentage of EB–DNA fluorescence quenching: [EB] = 20 µM, [DNA] = 26 µM; for EB–DNA quenching constant kq: from KSV with τo = 23 ns; for ΔΙ/Ιο, percentage of EB–DNA fluorescence quenching: 592 nm; for EB–DNA relative fluorescence emission intensity I/Io remaining (% of initial): λemission = 592 nm, final value, r up to 0.36
Source text: EB is a well-known indicator of DNA intercalation, since its insertion in-between adjacent DNA base pairs may lead to the development of effective π–π stacking interactions. A solution containing the EB–DNA adduct presents an intense fluorescence emission band at 592 nm when excited at λex = 540 nm. The addition of a compound intercalating to DNA equally or more tightly than EB into this solution may induce changes to the emission band which are monitored, in order to gain insight into its competition with EB for the DNA intercalation site.
The fluorescence emission spectra of pretreated EB–DNA ([EB] = 20 µM, [DNA] = 26 µM) were recorded in the presence of increasing amounts of the complexes (representatively shown for complex 1 in Figure 6A).
The Stern–Volmer (KSV) constants (Table 6) of the complexes were calculated with the Stern–Volmer equation (Equation (S2)) and Stern–Volmer plots. The KSV values are relatively high (of the […] magnitude), indicating a tight binding to CT DNA. […] The EB–DNA quenching constants (kq) of the compounds (Table 6) were calculated with Equation (S3) (considering τo = 23 ns as the EB–DNA fluorescence lifetime); the kq values are higher than 10^10 M^−1 s^−1 [56], proposing the existence of a static quenching mechanism, which may confirm the interaction with the fluorophore and the displacement of EB. […]
S2Binding studies with CT DNA […]
S2.3 EB -displa cement studie s
The competition of the complexes with EB was investigated by fluorescence emission spectroscopy in order to examine whether the compounds can displace EB from its DNA-EB conjugate. The CT DNA-EB complex was formed by pre-treating 20 μM EB and 26 μM CT DNA in buffer (150 mM NaCl and 15 mM trisodium citrate at pH = 7.0).
The possible displacement of EB by the compounds and su bseq uently t he ir intercalating effect was studied by the stepwise addition of a certain amount of the solution of each […]
compound into the solution of the CT DNA-EB adduct. The solut ions were excited at 540 nm and the emission was monitored from 550-700 nm with λmax= 592- 595 nm and the effe ct of the addition of each compound to the CT-DNA EB solution was recorded. The […]
solution or in the presence of CT DNA or EB under the same experimental conditions (λ ex = 540 nm); therefore, the observed quenching of the EB-DNA solution may be attributed to the displacement of EB from its EB -DNA add uct.
The Stern-Volmer constants (KSV, in M -1) were calculated according by the linear Stern-Volmer equation (eq. S2) [S 4] and the respect ive plots Io/I versus [ compound].
Io =1+ k τ [Q] =1+ K [Q] (eq. S2) […]
where Io and I are the emission intensit ies of the EB-DNA solut ion in the absence and the presence of the compounds , respectively, τo= the average lifetime of the emitting system without the quencher and kq = the quenching constant. Taking τo = 23 ns as the fluorescence lifetime of the EB-DNA adduct [S5], the quenching co nstants (k q, in M -1s-1) of the compounds were calculated according to eq. S3 [S 4]:
S3Albumin -binding studies
In order to investigate if the compounds can bind to carrier proteins like serum albumins, we carried out albumin binding study by tryptophan fluorescence quenching experiments using bo vine serum albumin (BSA, 3 μM) in buffer (containing 15 mM trisodium citrate and 150 mM NaCl at pH 7.0). The quenching of the emission intensity of tryptophan residues of BSA at 343 nm was monitored using the co mpounds as que ncher s with increasing concentration [S4]. The fluo rescence emission spectra of the compounds were also recorded with λex = 295 nm. No fluorescence emission band was recorded and thus it was not related to the compounds . The influence of the inner-filter effect [S6] on the measurements wa s evaluated by equation S4.
Where Icorr = corrected intensity, Imeas = the measured intensity, c = the concentration of the quencher, d = the cuvette (1 cm), ε (λexc ) and ε(λe m) = the ε of the quencher at the excitation […]

Structure (SMILES)	Stern–Volmer constant Ksv (EB–DNA)	EB–DNA quenching constant kq	ΔΙ/Ιο, percentage of EB–DNA fluorescence quenching	EB–DNA relative fluorescence emission intensity I/Io remaining (% of initial)
O=Cc1cc(F)ccc1[O-].O=[N+]([O-])[O-].[Cu+2].c1ccc(-c2ccccn2)nc1 [Complex 5, [Cu(5–F–salo)(bipy)(NO3)]]	3.14 (±0.06) × 10^4 M^−1	1.36 (±0.03) × 10^12 M^−1 s^−1		
CO.Cc1ccc2ccc3ccc(C)nc3c2n1.O=Cc1cc(F)ccc1[O-].[Cl-].[Cu+2] [Complex 3, [Cu(5–F–salo)(neoc)Cl].CH3OH]	3.35 (±0.05) × 10^4 M^−1	1.46 (±0.02) × 10^12 M^−1 s^−1	49.1%	50.9%
O=Cc1cc(F)ccc1[O-].[Cl-].[Cu+2].c1ccc(Nc2ccccn2)nc1 [Complex 2, [Cu(5–F–salo)(bipyam)Cl]]	6.23 (±0.11) × 10^4 M^−1	2.71 (±0.05) × 10^12 M^−1 s^−1	44.5%	55.5%
O=Cc1cc(F)ccc1[O-].O=Cc1cc(F)ccc1[O-].[Cu+2] [Complex 1, [Cu(5–F–salo)2]]	1.56 (±0.02) × 10^5 M^−1	6.78 (±0.09) × 10^12 M^−1 s^−1	44.8%	55.2%
O=Cc1cc(F)ccc1[O-].O=[N+]([O-])[O-].[Cu+2].c1cnc2c(c1)ccc1cccnc12 [Complex 4, [Cu(5–F–salo)(phen)(NO3)]]	6.77 (±0.07) × 10^4 M^−1	2.94 (±0.03) × 10^12 M^−1 s^−1	48.4%	51.6%
